Key:
[1] = parameters: method as in PMID 28582670; AUC: concentration or dose not given beside the values; conditions: mouse plasma; cited from earlier work
[2] = Plasma protein binding by equilibrium dialysis; format: in vitro ADME, mouse
Experimental: The plasma protein binding of the compounds was determined by equilibrium dialysis (12–14 kDa cutoff membrane). […] The dialysis unit was covered with an adhesive sealing film to prevent evaporation of the contents and placed in an incubator (Innova-42, New Brunswick Scientific) maintained at 37 °C with gentle mixing (80 rpm) for 6 h. Next, a 10 μL sample was aspirated from the plasma side and mixed with 90 μL of fresh PBS, whereas a 90 μL sample from the buffer side was removed and combined with 10 μL of drug-free plasma to ensure uniform matrix composition. Ice-cold acetonitrile (300 μL; Merck Millipore, Burlington, MA) containing internal standard (a BZS analogue of similar chemical structure) was added to each sample to precipitate protein and was vortexed for 2 min and centrifuged for 5 min at 13 000 rpm. The supernatant was diluted with 0.01% formic acid in ultrapure water (Milli-Q) (1:1) and quantitated by liquid chromatography–tandem mass spectrometry (LC-MS/MS). Each compound was tested in triplicate alongside control compounds known to have low (e.g., lidocaine) and high (e.g., amitriptyline) plasma protein binding. For media binding studies, the same assay was used, but RPMI with 0.1% BSA was used in place of CD1 mouse plasma.

[3] = Binding to proteins in KHYG-1 cell media (RPMI with 0.1% BSA) by equilibrium dialysis; format: in vitro ADME; conditions: bovine, pH 7.4, read-out: free fraction in the KHYG-1 cell media

CN1Cc2cc(-c3ccc(-c4cncc(NS(=O)(=O)c5ccccc5[N+](=O)[O-])c4)s3)ccc2C1=O [Compound 1, N-{5-[5-(2-methyl-1-oxo-2,3-dihydro-1H-isoindol-5-yl)-2-thienyl]-3-pyridinyl}-2-nitrobenzenesulfonamide]
AUC [1]: 415 µM·h | Cmax [1]: 105000 nM | fraction unbound at 6 h ([2]; CD1, mouse, pH 7.4, without saturation of plasma protein binding (99.8% protein-bound), read-out: free fraction in plasma): 0.002 | total plasma concentration required for unbound IC90 at 6 h ([2]; CD1, mouse, pooled mouse plasma, pH 7.4, at a free fraction of 0.002, read-out: total plasma concentrations required to achieve unbound plasma concentrations equivalent to the in vitro unbound IC90): ~350 µM | fraction unbound at 6 h, 10 μM ([2]; CD1, pH 7.4, mouse plasma, 10 μM, equilibrium dialysis): 0.002 | fraction unbound at 6 h, 10 μM ([2]; CD1, pooled mouse plasma, pH 7.4, concentration 10 μM, mouse plasma): 0.002 | fraction unbound at 6 h, 100 μM ([2]; CD1, pooled mouse plasma, pH 7.4, concentration 100 μM, mouse plasma): 0.0006 | fraction unbound at 6 h, 500 μM ([2]; CD1, pooled mouse plasma, pH 7.4, concentration 500 μM, mouse plasma): 0.0019 | fraction unbound at 6 h, 1000 μM ([2]; CD1, pooled mouse plasma, pH 7.4, concentration 1000 μM, mouse plasma): 0.0038 | increase in free drug concentrations ([2]; between 500 and 1000 μM): 4 fold | unbound concentration ([2]; concentration 10 μM, mouse plasma): 20 nM | unbound concentration ([2]; concentration 100 μM, mouse plasma): 60 nM | unbound concentration ([2]; concentration 500 μM, mouse plasma): 950 nM | unbound concentration ([2]; concentration 1000 μM, mouse plasma): 3800 nM | fraction unbound at 6 h, 10 μM [3]: 0.144

Reference: publication PMC9194936, “Preclinical Activity and Pharmacokinetic/Pharmacodynamic Relationship for a Series of Novel Benzenesulfonamide Perforin Inhibitors” (ACS Pharmacology & Translational Science, 2022)
